Reference: patent US12521393B2, “Cytotoxicity targeting chimeras for CCR2-expressing cells” (GLAXOSMITHKLINE INTELLECTUAL PROPERTY DEVELOPMENT LIMITED, priority 2021, dated 2026)

How the values were obtained:
[1] = biological target: human alpha1 nicotinic acetylcholine (nACh) receptor (Homo sapiens, UniProt P02708); assay: Nicotinic acetylcholine receptor antagonism assay, IONFlux automated patch clamp (Example 203); type: cell-based
Procedure: Cells expressing human alpha1 nicotinic acetylcholine (nACh) receptor (nAChR) were washed and dissociated using Trypsin containing buffer. Cells were then washed and seeded at a density of 3-5 million cells/mL and allowed to grow for 3 days. Then, 60-80 μL of cells were added to plates and incubated with dose response of an ARM compound of Formula (I) with a top concentration of either 10 μM or 100 μM. The receptor was then stimulated via addition of acetylcholine (ACh) and activation of the receptor was monitored via the IONFlux automated patch clamp system. IonFlux Data Analyzer software was utilized to perform leak subtraction and measure (min) peak current amplitude.
Data processing: (1) Current values recorded for vehicle only applications in individual traps/patterns were subtracted from corresponding current amplitude values for control, test article and control+test article. (2) Control response was calculated as % of the average response of the 3rd out of total 3 ACh (10 mM) applications alone. In rare situations, if the 3rd ACh response was obscured due to technical artifacts, the 2nd and/or 1st ACh (10 mM) application was considered as control. The peak current amplitude generated in the presence of each test article concentration was then used to calculate the % inhibition as compared to control response (10 mM ACh alone). These estimates were further corrected for vehicle response and run down corrected by normalizing with time matched control responses (10 mM ACh alone). The corrected percentages were then fit with a non-linear function in GraphPad Prism 6 (or later versions) to determine the IC50.
Exclusion criteria: (i) any n's with poor recording quality, (ii) control current amplitude <500 pA or (iii) significant outliers, as determined by the Grubbs test.
ARMs compounds of Formula (I) of the invention were tested for antagonism of the nAChR in the above assay in […] experimental runs and the results are shown in Table 7 below. Antagonistic activity of the compounds of Formula (I) of the invention is reported as an IC50 value (half maximal inhibitory concentration) and the maximum percentage antagonism observed at the highest concentration of compound of Formula (I) tested, as indicated in Table 7. For compounds tested in more than one experimental run, the IC50 value is reported as an average

[2] = tested on: CCR2 expressing cells (CD11b+Ly6c+Hi) in peripheral blood; assay: In vivo depletion assay, flow cytometry of peripheral blood (Example 201); design: species or system human CCR2 knock-in mice (C57 background); conditions: hCCR2 knock-in mice, IV 0.1 mpk compound + 10 mpk anti-cotinine antibody (SEQ ID NO: 13/14), peripheral blood at 48 hr
Procedure: Stock solution preparation. Stock solutions of compounds of Formula (I) were prepared at 20 mg/mL and 100 mg/mL in […] for PK/PD and dose tolerability studies respectively. Stock solutions were stored at […] until further usage. on the day of experiment, the stock Solution of the compound of Formula (I) was removed from storage at […] and thawed at room temperature. Anti-cotinine antibody having a heavy chain sequence of SEC ID NO: 13 and a light chain sequence of SEQ ID NO: 14 (rabbit variable region sequence with mouse IgG2a Fc domain), if required was removed from storage at −80° C. and thawed at room temperature. Antibody vials were immediately transferred into wet ice after thawing. Compounds of Formula (I) were further diluted in DMSO as per experimental requirements.
The formulation composition was Saline: DMSI: PBS.
Saline was added based on the quantity required and then stock solution of the compound of Formula (I) prepared in DMSO, followed by addition of antibody in PBS. Formulations were incubated at room temperature for 30 minutes before administration to the mouse. DMSO was used at 1 to % (v/v) in the final formulation.
After bleeding, each mouse was sacrificed by cervical dislocation. […] Flow Cytometry Analysis:
CCR2 depletion in peripheral blood was determined by flow cytometry. Briefly, peripheral blood was collected from all animals at the end of study termination and processed. Blood samples were lysed using 1×RBC Lysis buffer and the resulting cell pellet was washed twice in FACS buffer (HBSS containing 5% FBS). Cells were subjected to Fc blocking using mouse Fc block from Biolegend (Trustain, anti-mouse CD16/32, Cat: 101319) to block non-specific binding followed by surface staining for immune markers (CD45, CD3, CD11 b, Ly6C, human CCR2). Surface staining was done for 30 minutes in ice and cells were washed twice to remove unbound antibodies. Cells were stained with 7AAD to determine viability and acquired on BD FACSVerse flow cytometer. Appropriate FMO controls and single-color controls were included in the experiment for gating and compensation respectively.
Percent depletion of CD11 b+Ly6c+Hi cells and CCR2 expression for the different treatment groups was determined.

[3] = tested on: endogenous target monocytes in human PBMC; assay: PBMC ex vivo monocyte depletion flow cytometry assay (Example 200); type: cell-based; conditions: with anti-cotinine antibody (SEQ ID NO: 11/12), 18-24 hours, EC50 in molar, read-out: Ex Vivo Depletion Assay pEC50 (converted)
Method in brief: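 Monocyte depletion is reported as pEC50, averaged or given individually across runs, and read by flow cytometry staining CD45, CD14 and CD4 with a viability dye. Compounds, diluted four-fold over 11 points from 1 mM DMSO stocks, were combined with 30 μg/mL Fc-enhanced anti-cotinine antibody and human PBMC, then incubated 18-24 h at 37° C.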

Chain of human alpha1 nicotinic acetylcholine (nACh) receptor (P02708 21-457): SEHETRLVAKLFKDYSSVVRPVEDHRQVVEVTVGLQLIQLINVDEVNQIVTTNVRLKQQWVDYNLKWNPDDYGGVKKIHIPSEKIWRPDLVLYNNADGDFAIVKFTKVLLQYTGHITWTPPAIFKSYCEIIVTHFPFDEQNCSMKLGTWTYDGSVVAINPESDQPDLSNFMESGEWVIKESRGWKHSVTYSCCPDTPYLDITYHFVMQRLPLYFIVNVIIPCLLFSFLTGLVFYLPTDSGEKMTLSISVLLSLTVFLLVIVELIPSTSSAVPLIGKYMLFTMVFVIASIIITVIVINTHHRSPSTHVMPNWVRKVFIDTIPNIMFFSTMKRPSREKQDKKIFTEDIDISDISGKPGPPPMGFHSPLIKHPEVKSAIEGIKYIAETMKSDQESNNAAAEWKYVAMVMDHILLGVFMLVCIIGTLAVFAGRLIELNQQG
Chain of human alpha1 nicotinic acetylcholine (nACh) receptor (P11230 24-501 partner): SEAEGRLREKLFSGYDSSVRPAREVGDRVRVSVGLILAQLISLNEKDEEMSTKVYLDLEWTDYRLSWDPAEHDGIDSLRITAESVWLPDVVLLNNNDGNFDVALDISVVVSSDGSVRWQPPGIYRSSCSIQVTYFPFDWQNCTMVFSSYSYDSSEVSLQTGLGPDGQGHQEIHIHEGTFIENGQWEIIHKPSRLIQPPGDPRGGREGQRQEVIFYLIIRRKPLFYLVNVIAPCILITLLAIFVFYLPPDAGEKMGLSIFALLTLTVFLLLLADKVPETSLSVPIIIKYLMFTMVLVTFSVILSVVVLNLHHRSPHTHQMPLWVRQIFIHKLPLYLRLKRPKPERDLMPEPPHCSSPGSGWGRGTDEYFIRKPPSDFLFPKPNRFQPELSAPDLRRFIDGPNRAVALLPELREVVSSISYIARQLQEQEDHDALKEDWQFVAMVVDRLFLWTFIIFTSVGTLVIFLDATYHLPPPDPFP
Chain of human alpha1 nicotinic acetylcholine (nACh) receptor (Q07001 22-517 partner): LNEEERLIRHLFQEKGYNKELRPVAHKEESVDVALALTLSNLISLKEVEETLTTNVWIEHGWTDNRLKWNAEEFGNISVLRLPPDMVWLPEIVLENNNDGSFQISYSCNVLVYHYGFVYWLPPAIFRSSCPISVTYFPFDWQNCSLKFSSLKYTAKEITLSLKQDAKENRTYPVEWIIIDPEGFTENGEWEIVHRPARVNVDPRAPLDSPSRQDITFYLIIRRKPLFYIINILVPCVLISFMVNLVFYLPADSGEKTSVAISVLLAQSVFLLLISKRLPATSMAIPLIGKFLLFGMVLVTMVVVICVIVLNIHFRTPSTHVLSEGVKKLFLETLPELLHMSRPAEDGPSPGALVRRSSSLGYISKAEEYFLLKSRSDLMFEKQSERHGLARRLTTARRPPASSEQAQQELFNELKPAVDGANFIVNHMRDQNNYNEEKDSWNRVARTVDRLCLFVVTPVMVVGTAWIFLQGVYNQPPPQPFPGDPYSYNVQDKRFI

Compound	% Depletion of CCR2 expressing cells [2]	other results
CC(C)N(C)[C@@H]1CC[C@H](N2CC[C@H](Nc3ncnc4ccc(C(F)(F)F)cc34)C2=O)[C@H](NC(=O)[C@H]2C[C@@H](NC(=O)CCCO[C@H]3CC[C@H](OCCNC(=O)[C@H]4CC(=O)N(C)[C@@H]4c4cccnc4)CC3)C2)C1 [Example 9, (2S,3S)-N-(2-(((1S,4S)-4-(4-(((1S,3S)-3-(((1R,2S,5R)-5-(Isopropyl(methyl)amino)-2-((S)-2-oxo-3-((6-(trifluoromethyl)quinazolin-4-yl)amino)pyrrolidin-1-yl)cyclohexyl)carbamoyl)cyclobutyl)amino)-4-oxobutoxy)cyclohexyl)oxy)ethyl)-1-methyl-5-oxo-2-(pyridin-3-yl)pyrrolidine-3-carboxamide]	–	IC50 ([1]; antagonism of ACh-stimulated human alpha1 nAChR current, patch clamp): 82000 nM; Emax at 100 µM ([1]; maximum percentage antagonism at maximum concentration tested 100 μM, read-out: Maximum Response): 53.9%
CCN1C(=O)C[C@H](C(=O)NCCO[C@H]2CC[C@H](OCCCC(=O)N[C@H]3CC[C@H](C(=O)N[C@@H]4C[C@H](N(C)C(C)C)CC[C@@H]4N4CC[C@H](Nc5ncnc6ccc(C(F)(F)F)cc56)C4=O)CC3)CC2)[C@H]1c1cccnc1 [Example 11, (2S,3S)-1-ethyl-N-(2-(((1,4-trans)-4-(4-(((1,4-trans)-4-(((1R,2S,5R)-5-(isopropyl(methyl)amino)-2-((S)-2-oxo-3-((6-(trifluoromethyl)quinazolin-4-yl)amino)pyrrolidin-1-yl)cyclohexyl)carbamoyl)cyclohexyl)amino)-4-oxobutoxy)cyclohexyl)oxy)ethyl)-5-oxo-2-(pyridin-3-yl)pyrrolidine-3-carboxamide]	91.57%	–
CC(C)N(C)[C@@H]1CC[C@H](N2CC[C@H](Nc3ncnc4ccc(C(F)(F)F)cc34)C2=O)[C@H](NC(=O)[C@H]2CC[C@H](NC(=O)CCCO[C@H]3CC[C@H](OCCNC(=O)[C@H]4CC(=O)N(C5CCC5)[C@@H]4c4cccnc4)CC3)CC2)C1 [Example 14, (2S,3S)-1-cyclobutyl-N-(2-(((trans)-4-(4-(((trans)-4-(((1R,2S,5R)-5-(isopropyl(methyl)amino)-2-((S)-2-oxo-3-((6-(trifluoromethyl)quinazolin-4-yl)amino)pyrrolidin-1-yl)cyclohexyl)carbamoyl)cyclohexyl)amino)-4-oxobutoxy)cyclohexyl)oxy)ethyl)-5-oxo-2-(pyridin-3-yl)pyrrolidine-3-carboxamide]	47.24%	–
CC(C)(C)N[C@@H]1CC[C@H](N2CC[C@H](Nc3ncnc4ccc(C(F)(F)F)cc34)C2=O)[C@H](NC(=O)[C@H]2CC[C@H](NC(=O)CCCO[C@H]3CC[C@H](OCCNC(=O)[C@H]4CC(=O)N(C5CCC5)[C@@H]4c4cccnc4)CC3)CC2)C1 [Example 15, (2S,3S)-N-(2-(((1R,4S)-4-(4-(((1R,4R)-4-(((1R,2S,5R)-5-(tert-butylamino)-2-((S)-2-oxo-3-((6-(trifluoromethyl)quinazolin-4-yl)amino)pyrrolidin-1-yl)cyclohexyl)carbamoyl)cyclohexyl)amino)-4-oxobutoxy)cyclohexyl)oxy)ethyl)-1-cyclobutyl-5-oxo-2-(pyridin-3-yl)pyrrolidine-3-carboxamide]	92.6%	–
CC(C)N(C)[C@@H]1CC[C@H](N2CC[C@H](Nc3ncnc4ccc(C(F)(F)F)cc34)C2=O)[C@H](NC(=O)C[C@H]2CC[C@H](NC(=O)CCOCCOCCOCCNC(=O)[C@H]3CC(=O)N(C)[C@@H]3c3cccnc3)CC2)C1 [Example 33, (2S,3S)-N-(2-(2-(2-(3-(((1R,4r)-4-(2-(((1R,2S,5R)-5-(Isopropyl(methyl)amino)-2-((S)-2-oxo-3-((6-(trifluoromethyl)quinazolin-4-yl)amino)pyrrolidin-1-yl)cyclohexyl)amino)-2-oxoethyl)cyclohexyl)amino)-3-oxopropoxy)ethoxy)ethoxy)ethyl)-1-methyl-5-oxo-2-(pyridin-3-yl)pyrrolidine-3-carboxamide]	89%	EC50 [3]: 0.316 nM
CN1C(=O)C[C@H](C(=O)NCCOCCOCCOCCOCCOCCOCCOCCOCCC(=O)N[C@@H]2C[C@H](NC(C)(C)C)CC[C@@H]2N2CC[C@H](Nc3ncnc4ccc(C(F)(F)F)cc34)C2=O)[C@H]1c1cccnc1 [Example 36, (2S,3S)-N-(27-(((1R,2S,5R)-5-(tert-Butylamino)-2-((S)-2-oxo-3-((6-(trifluoromethyl)quinazolin-4-yl)amino)pyrrolidin-1-yl)cyclohexyl)amino)-27-oxo-3,6,9,12,15,18,21,24-octaoxaheptacosyl)-1-methyl-5-oxo-2-(pyridin-3-yl)pyrrolidine-3-carboxamide]	83.33%	–
CN1C(=O)C[C@H](C(=O)NCCC(=O)NCCOCCOCCC(=O)N[C@H]2CC[C@@H](C(=O)N[C@@H]3C[C@H](NC(C)(C)C)CC[C@@H]3N3CC[C@H](Nc4ncnc5ccc(C(F)(F)F)cc45)C3=O)CC2)[C@H]1c1cccnc1 [Example 51, (2S,3S)-N-(3-((2-(2-(3-(((1S,4s)-4-(((1R,2S,5R)-5-(tert-Butylamino)-2-((S)-2-oxo-3-((6-(trifluoromethyl)quinazolin-4-yl)amino)pyrrolidin-1-yl)cyclohexyl)carbamoyl)cyclohexyl)amino)-3-oxopropoxy)ethoxy)ethyl)amino)-3-oxopropyl)-1-methyl-5-oxo-2-(pyridin-3-yl)pyrrolidine-3-carboxamide]	97.32%	EC50 [3]: 0.631 nM
CC(C)N(C)[C@@H]1CC[C@H](N2CC[C@H](Nc3ncnc4ccc(C(F)(F)F)cc34)C2=O)[C@H](NC(=O)[C@H]2CC[C@@H](NC(=O)CNC(=O)COCCOCCNC(=O)[C@H]3CC(=O)N(C)[C@@H]3c3cccnc3)CC2)C1 [Example 81, (2S,3S)-N-(2-(2-(2-((2-(((1S,4s)-4-(((1R,2S,5R)-5-(Isopropyl(methyl)amino)-2-((S)-2-oxo-3-((6-(trifluoromethyl)quinazolin-4-yl)amino)pyrrolidin-1-yl)cyclohexyl)carbamoyl)cyclohexyl)amino)-2-oxoethyl)amino)-2-oxoethoxy)ethoxy)ethyl)-1-methyl-5-oxo-2-(pyridin-3-yl)pyrrolidine-3-carboxamide]	94%	–
